This data set is described as follows: IV pharmacokinetics in male SD rats. The note with it: for clearance: male, Sprague-Dawley, rat, plasma, iv. The data set is classed as in vivo, rat. Here is the method: Pharmacokinetic parameters of some examples were evaluated in male Sprague Dawley (SD) rats after intravenous (IV) and oral (PO) dosing. Male SD rats (5-6 weeks of age) were fasted for 12 hours before administration of the compound of interest. Animals were allowed access to food 2 h after dosing and water was given ad libitum. Except for the compound of Example 13, pharmacokinetic experiments comparing deuterium containing and non-deuterium containing compounds were performed at the same time using the same cohort of animals. The pharmacokinetic properties of the compound of Example 13 were evaluated separately and compared to previously generated data.
For IV dosing, a 0.5 mg/mL solution of the test compound was prepared in a vehicle consisting of 5% DMSO, 5% Cremophore, 90% normal saline. For a 1 mpk dose, 2 mL/kg of this dosing vehicle was administered to each rat by bolus injection into the tail vein. For lower doses, the dosing solution was diluted with the appropriate amount of vehicle. Example 3 was evaluated at 3 mpk by preparing a 1.5 mg/mL solution in the same vehicle and dosing 2 mL/kg. Blood samples from each animal was collected in di-sodium EDTA coated containers at 0.12, 0.25, 0.5, 1.0, 2.0, 4.0, 8.0 and 24.0 hours after dosing. Plasma was separated from the blood samples within 15 minutes following collection and stored at −20±5° C. before analysis.
A standard curve was generated from a stock solution of the test compound with known concentration in methanol. Working solutions having known concentrations ranging from 5-20,000 ng/mL were prepared from the stock solution by dilution with methanol:water (80:20 v/v). 5 uL of the working solutions were added to 45 uL of blank rat plasma to provide standard samples for analysis.
Plasma samples collected from rats after dosing were allowed to reach room temperature. A 50 uL aliquot of each plasma sample and the standard curve plasma samples were treated with 200 uL of acetonitrile containing an internal standard (100 ng/mL; warfarin/diclofenac) and mixed well. The samples were vortexed for 5 minutes followed by centrifugation for 5 minutes at 14000 rpm at 4° C. The supernatant (10 uL) was analyzed by LC-MS/MS (LC: Shimadzu SIL HTc, MS: MDS Sciex API-5500 & 4000 using 75%/25% acetonitrile/0.2% formic acid in Milli-Q water, flow rate: 1.0 mL/min, run time 3 minutes, Atlantis dC18(50×4.6 mm, 3 um; Waters®)) and the concentrations of the test compound in the plasma samples collected from rats at each time point were determined by comparison to the standard curve samples.
Pharmacokinetic parameters were calculated from the plasma concentrations at each time point using Phoenix WinNonlin (Version 7.0) by the non-compartmental analysis (NCA) method. Clearance values are reported as mL/min/kg. AUC values are reported as ng·h/mL.

Where [1] appears, read: 0.1 mg/kg, IV 0.1 mpk, ± one standard deviation, read-out: IV clearance 0.1 mpk.
Where [2] appears, read: 1 mg/kg, IV 1 mpk, ± one standard deviation, read-out: IV clearance 1 mpk.
Where [3] appears, read: 3 mg/kg, IV 3 mpk, ± one standard deviation, read-out: IV clearance 3 mpk.
The mark [4] stands for this setting: IV 0.1 mpk, ± one standard deviation.

SMILES strings stand for the structures. Read-outs that look alike come from different tables or passages of the source.

As a reminder, the clearance is the rate of elimination divided by the concentration. Regarding `COc1cccc(COc2cc(C)n(-c3cc(-c4ccnc(C(C)(C)O)n4)ncc3C)c(=O)c2Cl)c1` [Example 9-H2, 3-chloro-2′-(2-(2-hydroxypropan-2-yl)pyrimidin-4-yl)-4-((3-methoxyphenyl)methoxy)-5′,6-dimethyl-2H-[1,4′-bipyridin]-2-one], the clearance is 16 ± 3 mL/min/kg under setting [1] and 12 ± 2 mL/min/kg under setting [2].
The corresponding values for `[2H]C([2H])(Oc1cc(C)n(-c2cc(-c3ccnc(C(C)(C)O)n3)ncc2C)c(=O)c1Cl)c1ccccc1` (single isomer, unassigned) [Example 5-D2, 3-Chloro-2′-(2-(2-hydroxypropan-2-yl)pyrimidin-4-yl)-5′,6-dimethyl-4-(phenylmethoxy-d2)-2H-[1,4′-bipyridin]-2-one] are 18 ± 1 mL/min/kg and 13 ± 2 mL/min/kg.
For `[2H]C([2H])(Oc1cc(C)n(-c2cc(-c3ccnc(C(C)(C)O)n3)ncc2C)c(=O)c1Cl)c1cccc(C(F)(F)F)c1` (single isomer, unassigned) [Example 7-D2, 3-Chloro-2′-(2-(2-hydroxypropan-2-yl)pyrimidin-4-yl)-5′,6-dimethyl-4-((3-(trifluoromethyl)phenyl)methoxy-d2)-2H-[1,4′-bipyridin]-2-one] the same measures were 4.9 ± 0.5 mL/min/kg and 6 ± 1 mL/min/kg.
For `[2H]C([2H])(Oc1cc(C)n(-c2cc(-c3ccnc(C(C)(C)O)n3)ncc2C)c(=O)c1Cl)c1cccc(OC)c1` (single isomer, unassigned) [Example 9-D2, 3-Chloro-2′-(2-(2-hydroxypropan-2-yl)pyrimidin-4-yl)-4-((3-methoxyphenyl)methoxy-d2)-5′,6-dimethyl-2H-[1,4′-bipyridin]-2-one] the same measures were 17 ± 3 mL/min/kg and 18 ± 2 mL/min/kg.
For the compound `[2H]C([2H])([2H])C(O)(c1nccc(-c2cc(-n3c(C)cc(OCc4ncc(F)cc4F)c(Cl)c3=O)c(C)cn2)n1)C([2H])([2H])[2H]` (single isomer, unassigned) [Example 13-D6, 3-Chloro-4-((3,5-difluoropyridin-2-yl)methoxy)-2′-(2-(2-hydroxypropan-2-yl-1,1,1,3,3,3-d6)pyrimidin-4-yl)-5′,6-dimethyl-2H-[1,4′-bipyridin]-2-one], for the setting “IV, versus non-deuterated comparator Example 1-H2”, the “effect of deuterium substitution on clearance” value is listed as “did not result in a statistically significant reduction in clearance”. Also, the clearance under setting [2] stood at 25 ± 7 mL/min/kg.
On to `[2H]C([2H])(Oc1cc(C)n(-c2cc(-c3ccnc(C(C)(C)O)n3)ncc2C)c(=O)c1Cl)c1ccn(C)n1` (single isomer, unassigned) [Example 3-D2, 3-Chloro-2′-(2-(2-hydroxypropan-2-yl)pyrimidin-4-yl)-5′,6-dimethyl-4-((1-methyl-1H-pyrazol-3-yl)methoxy-d2)-2H-[1,4′-bipyridin]-2-one], for which the clearance was 12 ± 3 mL/min/kg under setting [1], 13 ± 2 mL/min/kg under setting [2] and 9 ± 1 mL/min/kg under setting [3].
For `Cc1cnc(-c2ccnc(C(C)(C)O)n2)cc1-n1c(C)cc(OCc2ccn(C)n2)c(Cl)c1=O` [Example 3-H2, 3-chloro-2′-(2-(2-hydroxypropan-2-yl)pyrimidin-4-yl)-5′,6-dimethyl-4-((1-methyl-1H-pyrazol-3-yl)methoxy)-2H-[1,4′-bipyridin]-2-one], the clearance is, setting by setting: under setting [1], 13 ± 3 mL/min/kg; under setting [2], 9 ± 2 mL/min/kg; under setting [3], 8 ± 1 mL/min/kg.
With `Cc1cnc(-c2ccnc(C(C)(C)O)n2)cc1-n1c(C)cc(OCc2cccc(C(F)(F)F)c2)c(Cl)c1=O` [Example 7-H2, 3-chloro-2′-(2-(2-hydroxypropan-2-yl)pyrimidin-4-yl)-5′,6-dimethyl-4-((3-(trifluoromethyl)phenyl)methoxy)-2H-[1,4′-bipyridin]-2-one], the clearance by setting is: under setting [1], 7 ± 4 mL/min/kg; under setting [2], 3.1 ± 0.3 mL/min/kg.
Turning to `[2H]C([2H])(Oc1cc(C)n(-c2cc(-c3ccnc(C(C)(C)O)n3)ncc2C)c(=O)c1Cl)c1ccc(F)cc1F` (single isomer, unassigned) [Example 11-H2, 3-chloro-4-((2,4-difluorophenyl)methoxy-d2)-2′-(2-(2-hydroxypropan-2-yl)pyrimidin-4-yl)-5′,6-dimethyl-2H-[1,4′-bipyridin]-2-one], the “dose dependence of clearance” value (IV 0.1 and 1 mpk) is reported as “strong dose dependence”. Besides, the “IV clearance 0.1 mpk” value under setting [4] is 40 ± 4 mL/min/kg. The “IV clearance 1 mpk” value (IV 1 mpk, ± one standard deviation) turned out to be 22 ± 2 mL/min/kg.
With `Cc1cnc(-c2ccnc(C(C)(C)O)n2)cc1-n1c(C)cc(OCc2ccccc2)c(Cl)c1=O` [Example 5-H2, 3-chloro-2′-(2-(2-hydroxypropan-2-yl)pyrimidin-4-yl)-5′,6-dimethyl-4-(phenylmethoxy)-2H-[1,4′-bipyridin]-2-one], the clearance by setting is: under setting [1], 16 ± 2 mL/min/kg; under setting [2], 15 ± 2 mL/min/kg.
For `[2H]C([2H])(Oc1cc(C)n(-c2cc(-c3ccnc(C(C)(C)O)n3)ncc2C)c(=O)c1Cl)c1ccc(F)cc1F` (single isomer, unassigned) [Example 11-D2, 3-Chloro-4-((2,4-difluorophenyl)methoxy-d2)-2′-(2-(2-hydroxypropan-2-yl)pyrimidin-4-yl)-5′,6-dimethyl-2H-[1,4′-bipyridin]-2-one], the “IV clearance 0.1 mpk” value under setting [4] is 16 ± 5, mL/min/kg. Further, the clearance under setting [2] amounted to 25 ± 3 mL/min/kg.

Values taken from US12403141B2, “Deuterated MK2 pathway inhibitors and methods of using the same” (ACLARIS THERAPEUTICS, INC., priority 2019, dated 2025).
